Results published in ChEMBL document CHEMBL1141428, “Polyisoprenylated benzoylphloroglucinol derivatives from Hypericum sampsonii” (2007).
≈ marks a conversion by molar mass, not a printed value.

System: Staphylococcus aureus
Experiment: Antibacterial activity against multidrug-resistant Staphylococcus aureus 1199B overexpressing NorA after 18 hrs
Type: functional

| SMILES | MIC [µM] |
| --- | --- |
| CCn1cc(C(=O)O)c(=O)c2cc(F)c(N3CCNCC3)cc21 [NORFLOXACIN] | 100 (≈ 31.9 µg/mL) |
| CC(C)=CC[C@H]1C[C@]2(CC=C(C)C)C(=O)C(C(=O)c3ccccc3)=C(O)[C@](CC=C(C)C)(C2=O)C1(C)C | 7.3 (≈ 3.67 µg/mL) |
